“And” between values parts separate entries of the source, which are not always exact repeats. Equal entries are not always repeated.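 Dose response: 5 concentrations. Exposure: 48 h. Format: 96-well plates. Endpoint: linear interpolation; highest concentration if not reached. Abbreviation: GI50, concentration required for 50% inhibition of growth. TGI: total growth inhibition.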
What was measured:
Experiment in all cases: inhibition of tumour cell growth, NCI panel, 48 h
A549 NSCLC = tested on: A549 NSCLC
COLO 205 colon = tested on: COLO 205 colon
HL-60(TB) leukemia = tested on: HL-60(TB) leukemia
KM12 colon = tested on: KM12 colon
MDA-MB-435 = tested on: MDA-MB-435
OVCAR-3 ovarian = tested on: OVCAR-3 ovarian
PC-3 prostate = tested on: PC-3 prostate
SNB-19 CNS = tested on: SNB-19 CNS
TK-10 renal = tested on: TK-10 renal
UO-31 renal = tested on: UO-31 renal

SMILES	GI50 (A549 NSCLC)	TGI (A549 NSCLC)	GI50 (COLO 205 colon)	TGI (COLO 205 colon)	GI50 (HL-60(TB) leukemia)	TGI (HL-60(TB) leukemia)	GI50 (KM12 colon)	TGI (KM12 colon)	GI50 (MDA-MB-435)	TGI (MDA-MB-435)	GI50 (OVCAR-3 ovarian)	TGI (OVCAR-3 ovarian)	GI50 (PC-3 prostate)	TGI (PC-3 prostate)	GI50 (SNB-19 CNS)	TGI (SNB-19 CNS)	GI50 (TK-10 renal)	TGI (TK-10 renal)	GI50 (UO-31 renal)	TGI (UO-31 renal)
Cc1nn(C)c(COc2ccc(N3CCN(S(=O)(=O)N(C)C)CC3)cc2)c1-c1cccc2c(CCCOc3cccc4ccccc34)c(C(=O)O)n(CCN3CCOCC3)c12	4.49 µM	16.9 µM	2.1 µM	4.81 µM	2.45 µM	6.07 µM	3.5 µM	13 µM	3.4 µM	12 µM	2.72 µM	8.57 µM	3.27 µM	10.7 µM	3.63 µM	23.4 µM	3.47 µM	15.5 µM	6.13 µM	20.3 µM
CC(C)CCNCC(O)Cn1c2ccccc2c2ccccc21 (stereo not given)	16.4 µM	31.9 µM	2 µM	3.95 µM	14.3 µM	31.6 µM	3.91 µM	14.4 µM	3.82 µM	14.8 µM	13.4 µM	26.8 µM	10.6 µM	23 µM	13.8 µM	28.8 µM	14 µM	27.6 µM	9.21 µM	23.3 µM
NC(=O)Nc1cc(-c2cccc(F)c2)sc1C(=O)N[C@H]1CCCNC1	0.188 µM and 0.356 µM	4.48 µM and 2.12 µM	0.169 µM and 0.216 µM	0.937 µM and 0.645 µM	0.101 µM and 0.291 µM	3.88 µM and 1.28 µM	0.00626 µM and 0.0351 µM	6.38 µM and 3.3 µM	0.069 µM and 0.181 µM	0.371 µM and 0.668 µM	0.168 µM and 0.55 µM	4.56 µM and 5.17 µM	0.502 µM and 0.521 µM	> 10 µM and 17.5 µM	0.562 µM and 0.54 µM	> 5.85 µM and 6.88 µM	0.111 µM and 0.251 µM	1.58 µM and 1.38 µM	0.213 µM and 0.304 µM	1.79 µM and 1.29 µM
NCCN.O=C([O-])CN1CCOCC1.[OH-].[Pt+4]	> 100 µM	> 100 µM	> 100 µM	> 100 µM	15.8 µM	> 100 µM	> 100 µM	> 100 µM	> 100 µM	> 100 µM	> 100 µM	> 100 µM	> 100 µM	> 100 µM	> 100 µM	> 100 µM	> 100 µM	> 100 µM	> 100 µM	> 100 µM
CC(=O)[O][Sn]([CH2]c1ccccc1)([CH2]c1ccccc1)[CH2]c1ccccc1	> 8.99 µM	> 10 µM	> 5.6 µM	> 6.79 µM	> 5.79 µM	> 7.61 µM	> 10 µM	> 10 µM	> 7 µM	> 10 µM	> 6.14 µM	> 10 µM	> 7.52 µM	> 10 µM	> 10 µM	> 10 µM	> 3.8 µM	> 5.43 µM	> 8.79 µM	> 10 µM
O=C1C(c2cnc3ccccc3n2)=C(O)c2ccccc21	–	> 100 µM	–	> 56.2 µM	–	> 88.5 µM	–	> 41.1 µM	–	> 100 µM	–	> 100 µM	–	> 85.7 µM	–	> 100 µM	–	> 100 µM	–	> 100 µM
Cc1ccc(C(=O)NC2CCC2)cc1-c1ccc(C(=O)NCC2CC2)cc1	> 25 µM	> 25 µM	> 25 µM	> 25 µM	> 25 µM	> 25 µM	> 25 µM	> 25 µM	> 25 µM	> 25 µM	> 25 µM	> 25 µM	> 25 µM	> 25 µM	> 25 µM	> 25 µM	> 25 µM	> 25 µM	> 25 µM	> 25 µM
Nc1c(C(=O)c2cccc(C#CCO)c2)cnn1-c1ccc(F)cc1	> 25 µM	> 25 µM	> 25 µM	> 25 µM	> 25 µM	> 25 µM	> 25 µM	> 25 µM	> 25 µM	> 25 µM	> 25 µM	> 25 µM	> 25 µM	> 25 µM	> 25 µM	> 25 µM	> 25 µM	> 25 µM	> 25 µM	> 25 µM
Cc1ccc(-c2nc3nc(-c4ccccc4)nc(N4CCNCC4)c3o2)cc1	0.788 µM	2.5 µM	0.208 µM	0.423 µM	0.215 µM	0.463 µM	0.345 µM	1.36 µM	1.58 µM	3.04 µM	0.187 µM	0.352 µM	0.947 µM	2.46 µM	1.06 µM	2.58 µM	0.747 µM	1.71 µM	0.513 µM	1.01 µM
